In one test the test system is HL-60. In words: Cytotoxicity against human HL60 cells after 72 hrs by Alamar Blue assay. It counts as functional, cell-based. The note with it: HL-60, 72 h.
Test [1] has as its target Casein kinase I isoform delta (Homo sapiens, UniProt P48730). In words: Inhibition of human recombinant casein kinase-1 delta using casein as substrate after 60 mins by kinase-glo luminescence assay.
The target in test [2] is Glycogen synthase kinase-3 beta (Homo sapiens, UniProt P49841). In words: Inhibition of human recombinant GSK-3 beta after 30 mins by luminescence assay.
Test [3] concerns the target Mitogen-activated protein kinase; ERK1/ERK2 (Homo sapiens) (UniProt P27361+P28482). In words: Inhibition of ERK1/2 kinase in human A431 cells using EGF as substrate at 10 uM incubated for 5 mins prior to substrate addition measured after 10 mins by fluorescence assay relative to control. The test is classed as cell-based. The note with it: A-431.
The target of test [4] is MAP kinase p38 (Homo sapiens) (UniProt O15264+Q15759+Q16539+P53778). The experiment in a line: Inhibition of P38 MAP kinase in human A431 cells using TNF-alpha as substrate at 10 uM incubated for 5 mins prior to substrate addition measured after 10 mins by fluorescence assay relative to control. The note with it: A-431. The test is classed as cell-based.
The test system of another test is HUVEC. The experiment in a line: Inhibition of VEGFR in HUVEC using […] as substrate at 10 uM incubated for 20 mins prior to substrate addition relative to control. It counts as cell-based. The note with it: Homo sapiens.
The target in test [5] is Serine/threonine-protein kinase RAF and Dual specificity mitogen-activated protein kinase kinase 1 (Raf/MEK) (Homo sapiens) (UniProt P04049+Q02750). The experiment in a line: Inhibition of RAF-1/MEK1 (unknown origin) assessed as at 10 uM after 5 mins by fluorescence assay relative to control. The test is classed as protein assay.
Test [6] deals with Serine/threonine-protein kinase B-raf (Homo sapiens) (UniProt P15056). In words: Competitive binding to B-RAF kinase (unknown origin) at 100 nM to 100 uM after 60 to 120 mins by FRET analysis.

pIC50: −log10 of the molar value. Calls of active or inactive are those of the source. The calls are words filed in the database; no cut-off is given here.

Sequence of Serine/threonine-protein kinase RAF and Dual specificity mitogen-activated protein kinase kinase 1 (Raf/MEK) (Homo sapiens) (P04049 whole entry, looked up): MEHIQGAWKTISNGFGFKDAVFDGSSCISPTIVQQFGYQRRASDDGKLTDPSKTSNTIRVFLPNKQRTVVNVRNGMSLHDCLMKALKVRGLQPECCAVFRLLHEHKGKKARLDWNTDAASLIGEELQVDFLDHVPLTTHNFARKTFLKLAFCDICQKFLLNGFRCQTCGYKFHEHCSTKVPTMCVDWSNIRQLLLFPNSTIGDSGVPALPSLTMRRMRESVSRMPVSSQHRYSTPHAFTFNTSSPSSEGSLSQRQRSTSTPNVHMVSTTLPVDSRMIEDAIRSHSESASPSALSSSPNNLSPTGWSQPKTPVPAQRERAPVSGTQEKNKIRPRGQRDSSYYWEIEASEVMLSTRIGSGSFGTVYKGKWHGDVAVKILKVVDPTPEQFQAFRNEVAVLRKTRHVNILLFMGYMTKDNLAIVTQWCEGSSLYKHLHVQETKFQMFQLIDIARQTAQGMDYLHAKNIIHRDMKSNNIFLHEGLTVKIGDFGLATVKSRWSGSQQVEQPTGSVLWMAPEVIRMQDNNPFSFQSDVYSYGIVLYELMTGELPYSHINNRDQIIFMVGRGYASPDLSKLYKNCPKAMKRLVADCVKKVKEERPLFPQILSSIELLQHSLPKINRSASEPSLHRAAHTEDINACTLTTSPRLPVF
Sequence of Serine/threonine-protein kinase RAF and Dual specificity mitogen-activated protein kinase kinase 1 (Raf/MEK) (Homo sapiens) (Q02750 whole entry, looked up): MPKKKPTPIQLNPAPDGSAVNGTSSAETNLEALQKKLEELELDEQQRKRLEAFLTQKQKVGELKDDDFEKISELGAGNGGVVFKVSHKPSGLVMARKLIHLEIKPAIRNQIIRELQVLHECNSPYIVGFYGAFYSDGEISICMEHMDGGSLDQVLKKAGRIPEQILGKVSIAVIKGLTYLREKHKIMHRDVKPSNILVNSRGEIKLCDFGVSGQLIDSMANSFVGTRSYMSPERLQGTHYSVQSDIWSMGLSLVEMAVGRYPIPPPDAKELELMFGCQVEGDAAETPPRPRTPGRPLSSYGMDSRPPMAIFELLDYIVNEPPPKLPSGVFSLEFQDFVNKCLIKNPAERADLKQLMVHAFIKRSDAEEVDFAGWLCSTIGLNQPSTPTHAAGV
Sequence of Serine/threonine-protein kinase B-raf (Homo sapiens) (P15056 whole entry): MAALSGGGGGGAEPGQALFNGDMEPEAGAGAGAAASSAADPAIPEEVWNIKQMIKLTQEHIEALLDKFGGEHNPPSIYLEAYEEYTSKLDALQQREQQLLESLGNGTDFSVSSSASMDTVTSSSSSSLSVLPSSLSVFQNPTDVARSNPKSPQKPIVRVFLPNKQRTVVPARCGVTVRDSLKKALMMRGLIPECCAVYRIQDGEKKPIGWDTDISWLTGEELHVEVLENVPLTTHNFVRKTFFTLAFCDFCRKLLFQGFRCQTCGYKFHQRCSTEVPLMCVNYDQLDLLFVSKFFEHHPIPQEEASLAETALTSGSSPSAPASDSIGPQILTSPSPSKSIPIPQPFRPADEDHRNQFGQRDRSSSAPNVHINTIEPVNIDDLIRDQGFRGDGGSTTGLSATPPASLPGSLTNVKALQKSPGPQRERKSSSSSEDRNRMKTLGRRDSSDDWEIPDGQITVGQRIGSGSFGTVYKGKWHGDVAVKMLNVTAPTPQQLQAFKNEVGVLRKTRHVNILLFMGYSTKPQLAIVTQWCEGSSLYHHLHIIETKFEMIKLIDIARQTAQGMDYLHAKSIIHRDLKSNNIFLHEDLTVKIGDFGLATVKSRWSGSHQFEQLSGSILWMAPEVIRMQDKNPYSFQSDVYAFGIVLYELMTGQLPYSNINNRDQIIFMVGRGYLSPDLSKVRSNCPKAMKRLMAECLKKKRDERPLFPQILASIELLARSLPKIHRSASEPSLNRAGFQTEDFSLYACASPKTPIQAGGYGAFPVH
Sequence of Mitogen-activated protein kinase; ERK1/ERK2 (Homo sapiens) (P27361 whole entry, looked up): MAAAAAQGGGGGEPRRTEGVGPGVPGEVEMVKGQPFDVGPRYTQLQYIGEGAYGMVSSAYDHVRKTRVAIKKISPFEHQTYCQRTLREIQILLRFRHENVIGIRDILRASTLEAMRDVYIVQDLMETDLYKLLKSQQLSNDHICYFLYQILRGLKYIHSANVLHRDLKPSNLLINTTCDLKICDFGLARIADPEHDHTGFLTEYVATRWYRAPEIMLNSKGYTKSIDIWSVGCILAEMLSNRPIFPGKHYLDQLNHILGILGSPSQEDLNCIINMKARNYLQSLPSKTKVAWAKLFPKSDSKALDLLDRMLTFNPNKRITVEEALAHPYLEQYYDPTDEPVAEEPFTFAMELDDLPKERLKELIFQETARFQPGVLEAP
Sequence of Mitogen-activated protein kinase; ERK1/ERK2 (Homo sapiens) (P28482 whole entry, looked up): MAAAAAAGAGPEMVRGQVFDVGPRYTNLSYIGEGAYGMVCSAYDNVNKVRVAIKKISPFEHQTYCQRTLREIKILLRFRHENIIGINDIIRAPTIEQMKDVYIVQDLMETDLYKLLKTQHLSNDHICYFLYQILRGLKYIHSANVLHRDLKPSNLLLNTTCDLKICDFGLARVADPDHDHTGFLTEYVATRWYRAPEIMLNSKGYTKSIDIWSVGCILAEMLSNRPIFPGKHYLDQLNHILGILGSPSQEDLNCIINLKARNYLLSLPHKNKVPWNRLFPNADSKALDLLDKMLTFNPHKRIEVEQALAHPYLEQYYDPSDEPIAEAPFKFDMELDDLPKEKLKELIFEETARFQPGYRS
Sequence of Casein kinase I isoform delta (P48730 whole entry, canonical isoform): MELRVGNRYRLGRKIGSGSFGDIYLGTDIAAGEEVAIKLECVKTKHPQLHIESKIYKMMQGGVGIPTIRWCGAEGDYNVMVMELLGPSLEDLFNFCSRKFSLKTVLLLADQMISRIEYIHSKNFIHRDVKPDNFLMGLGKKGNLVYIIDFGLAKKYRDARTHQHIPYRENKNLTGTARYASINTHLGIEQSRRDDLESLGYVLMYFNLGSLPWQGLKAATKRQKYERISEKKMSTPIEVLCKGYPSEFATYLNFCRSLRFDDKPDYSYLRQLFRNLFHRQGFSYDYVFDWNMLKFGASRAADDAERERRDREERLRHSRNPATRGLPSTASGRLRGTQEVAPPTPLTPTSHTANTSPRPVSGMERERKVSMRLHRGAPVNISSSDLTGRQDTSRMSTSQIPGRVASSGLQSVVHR
Sequence of Glycogen synthase kinase-3 beta (P49841 whole entry): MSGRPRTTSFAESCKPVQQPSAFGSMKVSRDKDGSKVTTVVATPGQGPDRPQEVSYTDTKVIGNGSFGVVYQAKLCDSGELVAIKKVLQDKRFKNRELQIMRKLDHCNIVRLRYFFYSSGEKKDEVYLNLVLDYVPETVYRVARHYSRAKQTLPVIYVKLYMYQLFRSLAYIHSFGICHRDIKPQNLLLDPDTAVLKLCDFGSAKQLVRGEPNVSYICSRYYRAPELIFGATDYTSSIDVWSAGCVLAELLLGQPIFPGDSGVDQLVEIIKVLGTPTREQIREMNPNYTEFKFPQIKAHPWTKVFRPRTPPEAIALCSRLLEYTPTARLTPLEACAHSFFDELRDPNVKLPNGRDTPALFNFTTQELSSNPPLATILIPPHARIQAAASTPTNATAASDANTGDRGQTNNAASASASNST

In the test on HL-60, `CNC(=O)c1cc(Oc2ccc(NC(=O)Nc3ccc(Cl)c(C(F)(F)F)c3)cc2)ccn1` [SORAFENIB] gave a pIC50 of 5.77.

Regarding `O=C(c1ccc(NC2=NCCN2)cc1)c1cccc(NC2=NCCN2)c1`, the pIC50 (in test [1]; in test [2]; in the test with HL-60) was below 4.00 each time.

On to `N=C(N)Nc1cccc(Cc2ccc(NC(=N)Nc3ccccc3)cc2)c1`, for which the pIC50 (in test [1]; in test [2]; in the test with HL-60) was below 4.00 in each case.

`N=C(N)Nc1ccc(Oc2cccc(NC(=N)N)c2)cc1`: the pIC50 in test [1] is below 4.00; in test [2], below 4.00; in the test with HL-60 it was 4.44. For the same compound, the inhibition in test [3] was -4%; in test [4], -1%; in the test with HUVEC it was -1%; in test [5], 22%.

`N=C(N)Nc1ccc(Nc2cccc(NC(=N)N)c2)cc1`: the pIC50 was below 4.00 in test [1], below 4.00 in test [2] and 4.17 in the test with HL-60. Further, the inhibition in test [4] was 4%; in the test on HUVEC it was -6%; in test [5] it was 86%.

`N=C(N)Nc1cccc(Cc2ccc(NC(=N)Nc3ccc(Cl)c(C(F)(F)F)c3)cc2)c1`: the values for the pIC50 (in test [1]; in test [2]; in the test on HL-60) were below 4.00, below 4.00 and 4.80, respectively. In test [6], the outcome was inactive. Also, the inhibition in test [3] is 17%; in test [4], -7%; with HUVEC, 17%; in test [5], 99%.

`N=C(N)Nc1cccc(C(=O)c2ccc(NC(=N)Nc3ccccc3)cc2)c1`: the pIC50 (in test [1]; in test [2]; in the test with HL-60) was below 4.00 each time.

In the case of `N=C(N)Nc1cccc(Nc2ccc(NC(=N)Nc3ccc(Cl)c(C(F)(F)F)c3)cc2)c1`, the pIC50 was below 4.00 in test [1], below 4.00 in test [2] and 4.44 in the test on HL-60. In addition, the result in test [6] was inactive. In addition, the inhibition in test [4] was 12%; in the test on HUVEC, -3%; in test [5], 74%.

Regarding `N=C(N)Nc1ccc(Cc2cccc(NC(=N)Nc3ccc(Cl)c(C(F)(F)F)c3)c2)cc1`, the values for the pIC50 (in test [1]; in test [2]; in the test on HL-60) were below 4.00, below 4.00 and 4.78, respectively. In addition, in test [6], the outcome was inactive.

For `c1cc(Cc2ccc(NC3=NCCN3)cc2)cc(NC2=NCCN2)c1`, the pIC50 (in test [1]; in test [2]; with HL-60) was below 4.00 throughout.

Turning to `N=C(N)Nc1ccc(Oc2cccc(NC(=N)Nc3ccccc3)c2)cc1`, the pIC50 (in test [1]; in test [2]; with HL-60) was below 4.00 throughout.

For the compound `N=C(N)Nc1cccc(Oc2ccc(NC(=N)Nc3ccc(Cl)c(C(F)(F)F)c3)cc2)c1`, the results for the pIC50 (in test [1]; in test [2]; in the test with HL-60) were below 4.00, below 4.00 and 4.61, respectively. Besides, the outcome in test [6] was inactive. The inhibition in test [3] is -7%; in test [4] it was 21%; in the test on HUVEC, 0%; in test [5], 96%.

Regarding `c1cc(NC2=NCCN2)cc(Oc2ccc(NC3=NCCN3)cc2)c1`, the negative-log IC50 (pIC50) (in test [1]; in test [2]; with HL-60) was below 4.00 throughout.

Take `CC(=O)Nc1cccc(Oc2ccc(NC(=N)Nc3ccc(Cl)c(C(F)(F)F)c3)cc2)c1`: the pIC50 was below 4.00 in test [1], below 4.00 in test [2] and 5.04 with HL-60. Besides, the outcome in test [6] was inactive. For the same compound, the results for the inhibition in test [3], in test [4] and in test [5] were 8%, 0% and 35%, respectively.

In the case of `N=C(N)Nc1cccc(Nc2ccc(NC(=N)Nc3ccccc3)cc2)c1`, the pIC50 (in test [1]; in test [2]; with HL-60) was below 4.00 in each case.

Turning to `N=C(N)Nc1ccc(Cc2cccc(NC(=N)Nc3ccccc3)c2)cc1`, the pIC50 (in test [1]; in test [2]; in the test with HL-60) was below 4.00 each time.

In the case of `N=C(N)Nc1ccc(Cc2cccc(NC(=N)N)c2)cc1`, the pIC50 was below 4.00 in test [1], below 4.00 in test [2] and 4.45 in the test with HL-60.

`N=C(N)Nc1ccc(Oc2ccc(NC(=N)N)cc2)cc1`: the pIC50 is below 4.00 in test [1], below 4.00 in test [2] and 4.05 with HL-60. The inhibition was 6% in test [3], -1% in test [4], 7% with HUVEC and 2% in test [5].

As for `CC(=O)Nc1cccc(Nc2ccc(NC(=N)Nc3ccc(Cl)c(C(F)(F)F)c3)cc2)c1`, the pIC50 is below 4.00 in test [1], below 4.00 in test [2] and 5.40 in the test with HL-60. Also, the outcome in test [6] was inactive. For the same compound, the inhibition amounted to 12% in test [3], 12% in test [4], 1% in the test with HUVEC and 38% in test [5].

For the compound `N=C(N)Nc1ccc(C(=O)c2cccc(NC(=N)N)c2)cc1`, the figures for the pIC50 (in test [1]; in test [2]; in the test on HL-60) were below 4.00, below 4.00 and 3.85, respectively.

With `N=C(N)Nc1cccc(C(=O)c2ccc(NC(=N)Nc3ccc(Cl)c(C(F)(F)F)c3)cc2)c1`, the pIC50 was below 4.00 in test [1], below 4.00 in test [2] and 4.65 with HL-60. Also, the result in test [6] was inactive. The inhibition was found to be 21% in test [3], 20% in test [4], 0% in the test on HUVEC and 96% in test [5].

In the case of `N=C(N)Nc1cccc(Oc2ccc(NC(=N)Nc3ccccc3)cc2)c1`, the pIC50 (in test [1]; in test [2]; in the test on HL-60) was below 4.00 throughout. For the same compound, the inhibition was 1% in test [4], -1% with HUVEC and 4% in test [5].

For the origin of these results see ChEMBL document CHEMBL3286227, “Guanidinium-based derivatives: searching for new kinase inhibitors” (Eur J Med Chem, 2014).
